# Experimental data: US7381521B2, “Anti-pathogenic composition useful in blood preservation” (Altachem Pharma Ltd., priority 2001, dated 2008)
# How the values were obtained:
# [1] = system: S. aureus ATCC 6538; experiment: Test 2 (DGHM), action as a function of disinfection time at 22° C., 8 × 10^8 organisms/ml; type: cell-based, Staphylococcus aureus
# Protocol: (§1) Another test was carried out a basis of the following solutions • 100 ml of a 0.1% solution of chlorohexidine digluconate (pH 6); and • 100 ml of a 0.1% solution of Bardac22®.
# (§2) The activity of these solutions, alone or in combination, was more particularly tested in respect of Staphylococcus aureus ATCC 6538, Escherichia coli ATCC 11229 and Candida albicans ATCC 10231.
# (§3) The tests were conducted in accordance with the procedure described in Chapter I/2.1 and 2.2 of Tichtlinien für die Prüfung und Bewertung chemischer Desinfektionsverfahren der DGHM/Guidelines for Testing and Evaluating Chemical Disinfection Processes of DGHM as at 1.1, 1981.
# [2] = system: C. albicans ATCC 1031; experiment: Test 2 (DGHM), action as a function of disinfection time at 22° C., 8 × 10^7 organisms/ml; type: cell-based, Candida albicans
# Protocol: as §1, §2, §3
# [3] = system: E. coli ATCC 11229; experiment: Test 2 (DGHM), action as a function of disinfection time at 22° C., 2 × 10^9 organisms/ml; type: cell-based, Escherichia coli
# Protocol: as §1, §2, §3
# [4] = system: human fibroblastic cells; experiment: Cytotoxicity check of the products on human fibroblastic cells; type: cell-based; conditions: 0.04% solution at a dilution of 10^−3; 0.1 ml in 1 ml medium; 3 days
# Protocol: Cytotoxicity checks are conducted on the products for cellular cultures used in the tests, that is to say the human fibroblastic cells.
# The cells are cultivated on a Dulbecco medium enriched with 10% fetal calf serum; at the moment of their use, the cells are washed and the same culture medium is used but without calf serum.
# For each product tested or each composition, 10 tubes of cellular culture were used and after inoculation of the product, the tubes were kept under observation for 3 days.
# Each product was, in succession, used pure and at dilutions of 10^−1, 10^−2, 10^−3 and added to culture tubes containing 1 ml of nutrient medium in a volume of 0.1 ml.
smiles,measurement,setting,value
"CCCCCCCCCC[N+](C)(C)CCCCCCCCCC.[Cl-] [Bardac ®, didecyl dimethyl ammonium chloride]",growth,"[1]; 0.05% vol/vol, 1 min",+
same,growth,"[1]; 0.05% vol/vol, 3 min",+
same,growth,"[1]; 0.05% vol/vol, 5 min",+
same,growth,"[1]; 0.05% vol/vol, 15 min",+
same,growth,"[1]; 0.05% vol/vol, 30 min",+
same,growth,"[1]; 0.05% vol/vol, 60 min",+
same,growth,"[1]; 0.1% vol/vol, 1 min",+
same,growth,"[1]; 0.1% vol/vol, 3 min",+
same,growth,"[1]; 0.1% vol/vol, 5 min",+
same,growth,"[1]; 0.1% vol/vol, 15 min",+
same,growth,"[1]; 0.1% vol/vol, 30 min",+
same,growth,"[1]; 0.1% vol/vol, 60 min",+
same,growth,"[1]; 0.5% vol/vol, 1 min",+
same,growth,"[1]; 0.5% vol/vol, 3 min",+
same,growth,"[1]; 0.5% vol/vol, 5 min",+
same,growth,"[1]; 0.5% vol/vol, 15 min",+
same,growth,"[1]; 0.5% vol/vol, 30 min",+
same,growth,"[1]; 0.5% vol/vol, 60 min",+
same,growth,"[1]; 1% vol/vol, 1 min",+
same,growth,"[1]; 1% vol/vol, 3 min",+
same,growth,"[1]; 1% vol/vol, 5 min",+
same,growth,"[1]; 1% vol/vol, 15 min",+
same,growth,"[1]; 1% vol/vol, 30 min",−
same,growth,"[1]; 1% vol/vol, 60 min",−
same,growth,"[1]; 5% vol/vol, 1 min",+
same,growth,"[1]; 5% vol/vol, 3 min",+
same,growth,"[1]; 5% vol/vol, 5 min",+
same,growth,"[1]; 5% vol/vol, 15 min",−
same,growth,"[1]; 5% vol/vol, 30 min",−
same,growth,"[1]; 5% vol/vol, 60 min",−
same,growth,"[1]; 10% vol/vol, 1 min",+
same,growth,"[1]; 10% vol/vol, 3 min",−
same,growth,"[1]; 10% vol/vol, 5 min",−
same,growth,"[1]; 10% vol/vol, 15 min",−
same,growth,"[1]; 10% vol/vol, 30 min",−
same,growth,"[1]; 10% vol/vol, 60 min",−
same,growth,"[1]; 25% vol/vol, 1 min",+
same,growth,"[1]; 25% vol/vol, 3 min",−
same,growth,"[1]; 25% vol/vol, 5 min",−
same,growth,"[1]; 25% vol/vol, 15 min",−
same,growth,"[1]; 25% vol/vol, 30 min",−
same,growth,"[1]; 25% vol/vol, 60 min",−
same,growth,"[2]; 0.05% vol/vol, 1 min",+
same,growth,"[2]; 0.05% vol/vol, 3 min",+
same,growth,"[2]; 0.05% vol/vol, 5 min",+
same,growth,"[2]; 0.05% vol/vol, 15 min",+
same,growth,"[2]; 0.05% vol/vol, 30 min",+
same,growth,"[2]; 0.05% vol/vol, 60 min",+
same,growth,"[2]; 0.1% vol/vol, 1 min",+
same,growth,"[2]; 0.1% vol/vol, 3 min",+
same,growth,"[2]; 0.1% vol/vol, 5 min",+
same,growth,"[2]; 0.1% vol/vol, 15 min",+
same,growth,"[2]; 0.1% vol/vol, 30 min",+
same,growth,"[2]; 0.1% vol/vol, 60 min",+
same,growth,"[2]; 0.5% vol/vol, 1 min",+
same,growth,"[2]; 0.5% vol/vol, 3 min",+
same,growth,"[2]; 0.5% vol/vol, 5 min",+
same,growth,"[2]; 0.5% vol/vol, 15 min",+
same,growth,"[2]; 0.5% vol/vol, 30 min",+
same,growth,"[2]; 0.5% vol/vol, 60 min",+
same,growth,"[2]; 1% vol/vol, 1 min",+
same,growth,"[2]; 1% vol/vol, 3 min",+
same,growth,"[2]; 1% vol/vol, 5 min",+
same,growth,"[2]; 1% vol/vol, 15 min",+
same,growth,"[2]; 1% vol/vol, 30 min",−
same,growth,"[2]; 1% vol/vol, 60 min",−
same,growth,"[2]; 5% vol/vol, 1 min",+
same,growth,"[2]; 5% vol/vol, 3 min",+
same,growth,"[2]; 5% vol/vol, 5 min",−
same,growth,"[2]; 5% vol/vol, 15 min",−
same,growth,"[2]; 5% vol/vol, 30 min",−
same,growth,"[2]; 5% vol/vol, 60 min",−
same,growth,"[2]; 10% vol/vol, 1 min",−
same,growth,"[2]; 10% vol/vol, 3 min",−
same,growth,"[2]; 10% vol/vol, 5 min",−
same,growth,"[2]; 10% vol/vol, 15 min",−
same,growth,"[2]; 10% vol/vol, 30 min",−
same,growth,"[2]; 10% vol/vol, 60 min",−
same,growth,"[2]; 25% vol/vol, 1 min",−
same,growth,"[2]; 25% vol/vol, 3 min",−
same,growth,"[2]; 25% vol/vol, 5 min",−
same,growth,"[2]; 25% vol/vol, 15 min",−
same,growth,"[2]; 25% vol/vol, 30 min",−
same,growth,"[2]; 25% vol/vol, 60 min",−
same,growth,"[3]; 0.05% vol/vol, 1 min",+
same,growth,"[3]; 0.05% vol/vol, 3 min",+
same,growth,"[3]; 0.05% vol/vol, 5 min",+
same,growth,"[3]; 0.05% vol/vol, 15 min",+
same,growth,"[3]; 0.05% vol/vol, 30 min",+
same,growth,"[3]; 0.05% vol/vol, 60 min",+
same,growth,"[3]; 0.1% vol/vol, 1 min",+
same,growth,"[3]; 0.1% vol/vol, 3 min",+
same,growth,"[3]; 0.1% vol/vol, 5 min",+
same,growth,"[3]; 0.1% vol/vol, 15 min",+
same,growth,"[3]; 0.1% vol/vol, 30 min",+
same,growth,"[3]; 0.1% vol/vol, 60 min",+
same,growth,"[3]; 0.5% vol/vol, 1 min",+
same,growth,"[3]; 0.5% vol/vol, 3 min",+
same,growth,"[3]; 0.5% vol/vol, 5 min",+
same,growth,"[3]; 0.5% vol/vol, 15 min",+
same,growth,"[3]; 0.5% vol/vol, 30 min",+
same,growth,"[3]; 0.5% vol/vol, 60 min",+
same,growth,"[3]; 1% vol/vol, 1 min",+
same,growth,"[3]; 1% vol/vol, 3 min",+
same,growth,"[3]; 1% vol/vol, 5 min",+
same,growth,"[3]; 1% vol/vol, 15 min",+
same,growth,"[3]; 1% vol/vol, 30 min",+
same,growth,"[3]; 1% vol/vol, 60 min",+
same,growth,"[3]; 5% vol/vol, 1 min",+
same,growth,"[3]; 5% vol/vol, 3 min",+
same,growth,"[3]; 5% vol/vol, 5 min",+
same,growth,"[3]; 5% vol/vol, 15 min",−
same,growth,"[3]; 5% vol/vol, 30 min",−
same,growth,"[3]; 5% vol/vol, 60 min",−
same,growth,"[3]; 10% vol/vol, 1 min",+
same,growth,"[3]; 10% vol/vol, 3 min",+
same,growth,"[3]; 10% vol/vol, 5 min",−
same,growth,"[3]; 10% vol/vol, 15 min",−
same,growth,"[3]; 10% vol/vol, 30 min",−
same,growth,"[3]; 10% vol/vol, 60 min",−
same,growth,"[3]; 25% vol/vol, 1 min",−
same,growth,"[3]; 25% vol/vol, 3 min",−
same,growth,"[3]; 25% vol/vol, 5 min",−
same,growth,"[3]; 25% vol/vol, 15 min",−
same,growth,"[3]; 25% vol/vol, 30 min",−
same,growth,"[3]; 25% vol/vol, 60 min",−
same,toxicity for the cell cultures,[4],not toxic
